Experimental data: patent US9617264B2, “2,7-diazaspiro[3.5]nonane compounds” (REMYND NV, priority 2014, dated 2017)

Key:
INS-1E cells = test: Cytokine-induced apoptosis (caspase-3/7 activation, Caspase-Glo 3/7) in INS-1E rat insulinoma cells; type: cell-based; conditions: cytokine mix (IFN-γ, IL-1, TNF-α), 24 hours, caspase 3/7 activity, read-out: CYT EC50
Description: The INS-1E cell line, a rat insulinoma cell line, has been characterized extensively. INS-1E cells respond to glucose by secreting insulin and, unlike most other immortalized n-cell lines, they do this in a consistent manner over time. The cells are sensitive to hyperglycemia-, free fatty acid (FFA)-, and cytokine-induced stress. Prolonged stress ultimately leads to induction of apoptotic pathways and, if stress is not counter-acted, to apoptosis. Caspase-3 and -7 play a central role downstream where various apoptotic pathways merge. As such, activation (i.e. cleavage) of these caspases forms a relevant primary read-out to evaluate protective activity of compounds against stress-induced apoptosis.
To evaluate the efficacy of different compounds to prevent induction of apoptosis, an in vitro screen was developed in which INS-1E cells were exposed to a cytokine mix (IFN-γ, 5 ng/ml; IL-1, 20 pg/ml; TNF-α, 0.25 ng/ml). The degree of induction of apoptosis was evaluated using a substrate for cleaved caspase-3 and -7, i.e. a proluminescent caspase-3/7 DEVD aminoluciferin substrate with a thermostable luciferase (Caspase-Glo® 3/7 assay; Promega, cat. G8092).
On day 0, INS-1E cells were plated in a white-walled 96-well microplate (Greiner, cat. 655098) at 20,000 cells per well in 100 μl complete medium (RPMI containing 11 mM glucose supplemented with 5% FCS, 100 IU/ml penicillin, 100 μg/ml streptomycin, 10 mM HEPES, 1 mM Sodium Pyruvate and 50 μM 2-Mercapto-ethanol). On day 2, 100 μl medium containing cytokines and compound dissolved in DMSO was added to the cells. Wells without cytokines containing DMSO and wells with cytokines and DMSO were included to evaluate the degree of caspase 3/7 activation by the cytokine mix. After 24 hours exposure to cytokines and/or compound, Caspase-Glo® 3/7 reagent was added to the cells and caspase activity was determined by measuring luminescence.
To evaluate compound efficacy, the “toxicity window” was calculated by subtracting caspase activity of wells without stressor from activity of wells with stressor but without compound. The amount of caspase activity in the latter wells was normalized to 1 and used as reference. Subsequently, caspase activity in the wells with stressor and varying concentrations of compound was calculated relative to the wells without compound. Plotting caspase activity vs the log 10 of the concentration of compound permitted calculation of the EC50 values for the compounds which typically lied between 0.0001 and 10 μM. Compounds with an EC50<10 μM were considered active.

M17_3SYN cells = test: Paraquat-induced cytotoxicity (LDH) in α-synuclein over-expressing M17_3SYN neuroblastoma cells; type: cell-based; conditions: Homo sapiens, Neuroblastoma cell, 48 h, 6 mM Paraquat, 2 days, LDH toxicity inhibition, read-out: SYN EC50
Method in brief: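 Human BE-M17 neuroblastoma cells stably overexpressing wild-type human α-synuclein were challenged with 6 mM paraquat (final) for 2 days at 37° C in the presence of graded compound concentrations. Cytotoxicity was measured as released LDH relative to total LDH, and EC50 was derived from dose-inhibition curves.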

db/db mice = test: In vivo evaluation in db/db mice (type 2 diabetes model)
Description: For in vivo evaluation of compound efficacy, male BKS.Cg-+Leprdb/Leprdb/OlaHsd mice (db/db mice—Harlan) were used. The db/db phenotype results from a mutation in the leptin receptor gene, leading to a splice variant (Chen, Charlat et al. 1996; Lee, Proenca et al. 1996). The development of type 2 diabetes in db/db mice is associated with reduced insulin levels due to progressive β-cell failure following an initial period of hypersecretion of insulin. Since these mice develop type 2 diabetes in a manner related to pathology development in humans, and the model is accepted as in vivo model for evaluation of novel anti-diabetic treatments by the Food and Drug Administration (FDA, US), it is a highly relevant model for testing candidate drugs for efficacy.
Compounds were administered intraperitoneal (IP) or oral (PO) at a dose of maximally 50 mg/kg. Mice were subjected to metabolic analysis weekly or bi-weekly. These tests included but were not limited to determination of fasting (5 hrs) and non-fasting blood glucose levels, plasma insulin levels, % glycated hemoglobin (HbA1c) levels, glucose tolerance test and insulin sensitivity test.
Treatment with Cmpd045 at 15 mg/kg PO decreased body weight (FIG. 1A).

EC50 (INS-1E cells): 12 nM
Structure (SMILES): COc1ccc(S(=O)(=O)N2CC3(CCN(S(=O)(=O)c4ccc(OC(F)F)cc4)CC3)C2)cc1 [Cmpd045, 7-((4-(Difluoromethoxy)phenyl)sulfonyl)-2-((4-methoxyphenyl)sulfonyl)-2,7-diazaspiro[3.5]nonane]
EC50 (M17_3SYN cells): 2 nM
body weight (db/db mice; 15 mg/kg PO, non-fasted body weight, FIG. 1A): decreased
Fasted blood glucose levels (db/db mice; fasted, FIG. 1B): significantly lower
% HbA1c levels (db/db mice; treated for 4 weeks, FIG. 1C): reduced
